Results reported in article PMC12308805, “Ultrahigh-Throughput Virtual Screening Strategies against PPI Targets: A Case Study of STAT Inhibitors” (Journal of Chemical Information and Modeling, 2025).

Assays:
STAT5b = system: STAT5b; design: method as in literature; conditions: training set for retrospective virtual screening with 6MBW; known actives for STAT5b found in the literature; ref literature; cited from earlier work
[1] = target: T1, STAT5b N-terminal domain (NTD) (Homo sapiens, UniProt P51692); test: Isothermal titration calorimetry (ITC), STAT5b-NTD; assay type: binding; design: key to identified as active in ITC: A compound was identified as active, if it had a mean Kd value under 100 μM; conditions: for Kd: ITC, 25 °C, 1X PBS pH 7.4, 8% DMSO, single-site fit
T1 sequence (P51692 1-126 limits assumed): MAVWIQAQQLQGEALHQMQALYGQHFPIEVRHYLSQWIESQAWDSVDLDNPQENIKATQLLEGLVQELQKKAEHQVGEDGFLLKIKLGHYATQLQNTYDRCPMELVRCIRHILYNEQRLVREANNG
Description: The detailed protocol for the expression and purification of the STAT5b-NTD was described in our recent work. ITC measurements were carried out on a MicroCal PEAQ-ITC microcalorimeter (Malvern Instruments, Worcestershire, UK). All protein and ligand solutions were composed of 1X PBS (pH 7.4) buffer containing 8% (V/V) DMSO to avoid buffer mismatch. Protein solutions containing 25-26 μM protein were prepared in batches prior to measurements by diluting 676 μM stock solution (stored in 1X PBS (pH 7.4) buffer at -80 °C) warmed to room temperature with 1X PBS (pH 7.4) buffer solution and an appropriate amount of DMSO. Ligand solutions were prepared by first dissolving the ligands in DMSO to acquire a 50 mM stock solution, which was then diluted to 1 mM (in the case of […]_M2 ligand) or 4 mM (all other ligands) concentration using 1X PBS (pH 7.4) buffer solution. Appropriate amounts of DMSO were also added to the solution containing 1 mM ligand to yield a 8% (V/V) DMSO content. The protein solution was loaded into the sample cell in a volume of 200 μL and was titrated at 25 °C with the ligand solution at a stirring speed of 1000 rpm and a reference heat rate of 10 μcal/s in a high feedback mode. Used initial delay was 120 s, and the injection program was composed of an initial first injection with 0.5 μL over 2 s, followed by 18 injections with 2 μL over 4 s. Injections were performed every 180 s. Blank measurements consisting of titrating the ligand into the buffer (1X PBS (pH 7.4) containing 8% (V/V) DMSO) were carried out to correct for the heat of dilution for all ligands using the appropriate injection program. Data were analyzed using the MicroCal PEAQ-ITC analysis software (version 1.22) by fitting a single-site binding curve. […] Binding curves of the identified active compounds are included in Supporting Information Figures S3-S5.

Compound	Type (Active / decoy) (STAT5b)	also measured
CC(C)(C)c1cc(CN(C(=O)CN(Cc2ccc(Cl)cc2)S(=O)(=O)c2c(F)c(F)c(F)c(F)c2F)c2ccc(C(=O)O)c(O)c2)cc(C(C)(C)C)c1 [13a, CC(C)(C)c1cc(CN(C(=O)CN(Cc2ccc(Cl)cc2)S(=O)(=O)c2c(F)c(F)c(F)c(F)c2F)c2ccc(C(=O)O)c(O)c2)cc(C(C)(C)C)c1]	Active	–
CC(C)(C)c1cc(CN(C(=O)CN(Cc2ccc(Cl)cc2)S(=O)(=O)c2c(F)c(F)c(F)c(F)c2F)c2ccc(C(=O)O)cc2)cc(C(C)(C)C)c1 [AC-4-130, CC(C)(C)c1cc(CN(C(=O)CN(Cc2ccc(Cl)cc2)S(=O)(=O)c2c(F)c(F)c(F)c(F)c2F)c2ccc(C(=O)O)cc2)cc(C(C)(C)C)c1]	Active	–
COC(=O)c1cccc(-c2ccc(-c3ccc(CN(C(=O)CN(C)S(=O)(=O)c4ccc(C)cc4)c4ccc(C(=O)O)c(O)c4)cc3)cc2)c1 [BP-1-075, COC(=O)c1cccc(-c2ccc(-c3ccc(CN(C(=O)CN(C)S(=O)(=O)c4ccc(C)cc4)c4ccc(C(=O)O)c(O)c4)cc3)cc2)c1]	Active	–
CN(CC(=O)N(Cc1ccc(C2CCCCC2)cc1)c1ccc(C(=O)O)c(O)c1)S(=O)(=O)c1ccc(-c2ccccc2)cc1 [BP-1-107, CN(CC(=O)N(Cc1ccc(C2CCCCC2)cc1)c1ccc(C(=O)O)c(O)c1)S(=O)(=O)c1ccc(-c2ccccc2)cc1]	Active	–
Cc1cc(C)c(S(=O)(=O)N(C)CC(=O)N(Cc2ccc(C3CCCCC3)cc2)c2ccc(C(=O)O)c(O)c2)c(C)c1 [BP-1-108, Cc1cc(C)c(S(=O)(=O)N(C)CC(=O)N(Cc2ccc(C3CCCCC3)cc2)c2ccc(C(=O)O)c(O)c2)c(C)c1]	Active	–
CC(=O)N1CC[C@@H](NC(=O)c2cc3ccccc3cc2O)[C@H](O)C1 [S5N_M6, c1cccc(c12)cc(c(O)c2)C(=O)N[C@@H]3CCN(C(=O)C)C[C@H]3O]	–	identified as active in ITC [1]: active; Kd [1]: 57.3 ± 11.9 µM
N[C@H]1C[C@@H](c2cc(N[C@H](CO)Cc3ccccc3)ncn2)C1 [S5N_M7, C1[C@H]([NH2])C[C@@H]1c(c2)ncnc2N[C@H](CO)Cc3ccccc3]	–	identified as weakly binding in ITC [1]: weakly binding (weakly binding (mean Kd is higher than 100 μM)); Kd [1]: 268 ± 37.8 µM
